These are literature values, as cited in US5281421A, “Gemfibrozil formulations” (Warner-Lambert Company, priority 1992, dated 1994).

The conditions of this data set: particularly in a highly acidic medium.

Regarding `Cc1ccc(C)c(OCCCC(C)(C)C(=O)O)c1` [Gemfibrozil, 5-(2,5-dimethylphenoxy)-2,2-dimethylpentanoic acid], the solubility in water entry is on record as “very poor solubility in water”.
